Results on eight molecules are retold here after ChEMBL document CHEMBL1201862, “PubChem BioAssay data set” (2004).

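How tested: cells in 96-well plates exposed to compound for 48 hours at five concentrations. GI50 = concentration required for 50% inhibition of growth.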 Active and inactive are the calls of the source. Rule as the data show it: active = GI50 up to about 1.1 µM and inactive = higher.

Among the test systems are BT-549; CCRF-CEM; HCC 2998; HCT-116; HCT-15; HOP-62; HT-29; IGROV-1; MDA-MB-231; MDA-MB-435; NCI-H23; NCI-H522; NCI/ADR-RES; OVCAR-3; OVCAR-4; OVCAR-5; RPMI-8226; SNB-19.
Common to all, as to test: growth of human tumour cells (NCI), 48 h

With `C/C(=N\Nc1nc2ccccc2s1)c1cnccn1`, the GI50 was 11.1 µM (inactive) with BT-549; 0.318 µM (active) in the experiment with CCRF-CEM; 7.21 µM (inactive) in the experiment with HCC 2998; 1.5 µM (inactive) in the experiment on HCT-116; 0.625 µM in the experiment on HCT-15; 2.75 µM (inactive) with HOP-62. The GI50 is 0.175 µM (active) in the experiment with HT-29; 0.406 µM (active) with IGROV-1; 0.757 µM (active) with MDA-MB-231; 6.01 µM (inactive) in the experiment on MDA-MB-435; 1.94 µM (inactive) with NCI-H23; 0.265 µM (active) in the experiment on NCI-H522. For the same molecule, the GI50 in the experiment on NCI/ADR-RES is 1.74 µM (inactive); in the experiment with OVCAR-3, 0.49 µM (active); in the experiment on OVCAR-4, 16.7 µM (inactive); with OVCAR-5, 3.33 µM (inactive); in the experiment on RPMI-8226, 2.89 µM (inactive); with SNB-19 it was 3.67 µM (inactive).

For `CC1OC(c2ccc3c(c2O)C(=O)C2=C(C3=O)C3(O)C(=O)CC(C)(O)CC3(O)C=C2)CC(O)C1O` (centres undefined), the GI50 with BT-549 was 18.7 µM (inactive); in the experiment on CCRF-CEM, 2.05 µM (inactive); in the experiment on HCC 2998, 15.5 µM (inactive); in the experiment on HCT-116 it was 5.26 µM (inactive); in the experiment on HCT-15 it was 14.5 µM; in the experiment with HOP-62, 26.8 µM (inactive). Also, the GI50 in the experiment on HT-29 is 5.4 µM (inactive); in the experiment on IGROV-1 it was 13.4 µM (inactive); in the experiment with MDA-MB-231, 2.25 µM (inactive); with MDA-MB-435, 10.6 µM (inactive); in the experiment on NCI-H23, 20.6 µM (inactive); in the experiment with NCI-H522, 2.34 µM (inactive). Further, the GI50 was 19.5 µM (inactive) in the experiment on NCI/ADR-RES; 5.35 µM (inactive) with OVCAR-3; 13.7 µM (inactive) in the experiment on OVCAR-4; 17 µM (inactive) in the experiment with OVCAR-5; 9.73 µM (inactive) with RPMI-8226; 18.4 µM (inactive) with SNB-19.

As to `C=Cc1c(C)c(O)cc2c1-c1ccc(O)c(C)c1CC2`, the GI50 in the experiment on BT-549 was 19.5 µM (inactive); in the experiment on CCRF-CEM, 12.5 µM (inactive); in the experiment with HCC 2998 it was 19 µM (inactive); with HCT-116 it was 14.1 µM (inactive); in the experiment with HCT-15, 12.2 µM; in the experiment with HOP-62, 26.7 µM (inactive). In addition, the GI50 is 23.7 µM (inactive) in the experiment with HT-29; 16.6 µM (inactive) in the experiment with IGROV-1; 23.2 µM (inactive) with MDA-MB-231; 14.1 µM (inactive) with MDA-MB-435; 17.1 µM (inactive) in the experiment with NCI-H23; 19.4 µM (inactive) in the experiment with NCI-H522. Further, the GI50 in the experiment with NCI/ADR-RES is 21 µM (inactive); in the experiment on OVCAR-3, 25.8 µM (inactive); in the experiment on OVCAR-4, 17.1 µM (inactive); in the experiment with OVCAR-5, 27.2 µM (inactive); with RPMI-8226, 22.4 µM (inactive); with SNB-19 it was 24.5 µM (inactive).

Consider `C=C1CCC(O)C/C1=C/C=C1\CCCC2(C)C1CCC2C(C)CCCC(C)C` (centres undefined), for which the GI50 in the experiment on BT-549 was 19.5 µM (inactive); in the experiment with CCRF-CEM, 24.5 µM (inactive); in the experiment with HCC 2998, 21.2 µM (inactive); with HCT-116 it was 15.2 µM (inactive); with HCT-15, 17.1 µM; with HOP-62, 19.5 µM (inactive). The GI50 was 15.3 µM (inactive) with HT-29; 17.3 µM (inactive) in the experiment with IGROV-1; 19.9 µM (inactive) with MDA-MB-231; 16.3 µM (inactive) in the experiment on MDA-MB-435; 18.5 µM (inactive) in the experiment with NCI-H23; 17.5 µM (inactive) in the experiment on NCI-H522. Also, the GI50 was 18.2 µM (inactive) in the experiment with NCI/ADR-RES; 18.5 µM (inactive) in the experiment with OVCAR-3; 18.1 µM (inactive) in the experiment with OVCAR-4; 20.3 µM (inactive) with OVCAR-5; 23.8 µM (inactive) with RPMI-8226; 19.1 µM (inactive) in the experiment on SNB-19.

Turning to `O=C(Nn1c(-c2ccccc2)nc2ccccc2c1=O)c1ccc([N+](=O)[O-])cc1`, the GI50 with BT-549 was 55.7 µM (inactive); in the experiment with CCRF-CEM, > 100 µM (inactive); in the experiment on HCC 2998 it was > 100 µM (inactive); in the experiment on HCT-116, > 10 µM (inactive); in the experiment with HCT-15, greater than 100 µM; in the experiment with HOP-62 it was > 100 µM (inactive). Further, the GI50 in the experiment with HT-29, in the experiment on IGROV-1, in the experiment on MDA-MB-231, in the experiment on MDA-MB-435, in the experiment on NCI-H23 and with NCI-H522 was > 100 µM (inactive) in each case. Moreover, the GI50 with NCI/ADR-RES, in the experiment on OVCAR-3, in the experiment with OVCAR-4, with OVCAR-5, with RPMI-8226 and in the experiment with SNB-19 was > 100 µM (inactive) each time.

Turning to `COc1ccc(C(OCC2OC(n3cnc4c(=O)n(Cc5ccccc5[N+](=O)[O-])nnc43)C(O)C2O)(c2ccccc2)c2ccc(OC)cc2)cc1` (centres undefined), the GI50 with BT-549 was 16.4 µM (inactive); in the experiment with CCRF-CEM it was 3.76 µM (inactive); in the experiment with HCC 2998, 6.97 µM (inactive); with HCT-116 it was 5.6 µM (inactive); with HCT-15, 9.31 µM; with HOP-62 it was 21.6 µM (inactive). The GI50 in the experiment on HT-29 is 4.31 µM (inactive); with IGROV-1 it was 10.9 µM (inactive); in the experiment on MDA-MB-231, 14.1 µM (inactive); in the experiment with MDA-MB-435, 10.4 µM (inactive); with NCI-H23, 13.4 µM (inactive); in the experiment on NCI-H522, 6.49 µM (inactive). The GI50 in the experiment on NCI/ADR-RES was 19.1 µM (inactive); in the experiment with OVCAR-3, 9.82 µM (inactive); in the experiment with OVCAR-4, 20.6 µM (inactive); in the experiment on OVCAR-5, 27.8 µM (inactive); in the experiment with RPMI-8226, 3.36 µM (inactive); in the experiment on SNB-19, 44.9 µM (inactive).

Consider `COc1ccc(-c2nc(N)c(C#N)c3c2CCSc2ccc(C)cc2-3)cc1OC`, for which the GI50 with BT-549 was 8.59 µM (inactive); with CCRF-CEM, 4.12 µM (inactive); in the experiment on HCC 2998, 16.3 µM (inactive); in the experiment on HCT-116 it was 10.8 µM (inactive); with HCT-15, 9.4 µM; with HOP-62, 42.8 µM (inactive). Besides, the GI50 in the experiment on HT-29 was 14.2 µM (inactive); in the experiment on IGROV-1 it was 23.1 µM (inactive); in the experiment with MDA-MB-231, 8.22 µM (inactive); in the experiment on MDA-MB-435, 4.61 µM (inactive); in the experiment with NCI-H23, 8.04 µM (inactive); in the experiment on NCI-H522, 5.89 µM (inactive). Besides, the GI50 is 12.3 µM (inactive) in the experiment on NCI/ADR-RES; 20.7 µM (inactive) in the experiment on OVCAR-3; 16.7 µM (inactive) in the experiment with OVCAR-4; 47.2 µM (inactive) with OVCAR-5; 0.594 µM (active) with RPMI-8226; 31.3 µM (inactive) in the experiment on SNB-19.

Regarding `CC(=O)NNc1nc(C)c(C(=O)/C=C/C=C/c2ccccc2)s1`, the GI50 in the experiment on BT-549 was > 100 µM (inactive); in the experiment with CCRF-CEM, 61.2 µM (inactive); in the experiment on HCC 2998, > 100 µM (inactive); in the experiment on HCT-116, 57.1 µM (inactive); in the experiment with HCT-15, greater than 100 µM; in the experiment on HOP-62 it was 80.4 µM (inactive). For the same molecule, the GI50 is > 100 µM (inactive) in the experiment on HT-29; 33.7 µM (inactive) with IGROV-1; 65.5 µM (inactive) in the experiment with MDA-MB-231; > 100 µM (inactive) with MDA-MB-435; > 100 µM (inactive) in the experiment on NCI-H23; 61.9 µM (inactive) with NCI-H522. Besides, the GI50 is 70.6 µM (inactive) in the experiment on NCI/ADR-RES; 52.2 µM (inactive) in the experiment with OVCAR-3; > 100 µM (inactive) in the experiment with OVCAR-4; > 100 µM (inactive) in the experiment with OVCAR-5; 76 µM (inactive) in the experiment on RPMI-8226; > 100 µM (inactive) in the experiment with SNB-19.
